# Data as given in patent US20240207304A1, “Combination Therapies Comprising C/EBP Alpha saRNA” (MiNA Therapeutics Limited, priority 2021, published 2024).
# Tested on: NAFLD and IR genes
# Experiment: Effects on NAFLD and IR gene expression in the liver
# Source text: Abbreviations in Table 4-1 and Table 4-2: NAFLD: non-alcoholic fatty liver disease; IR: insulin resistance; DNL: de novo lipogenesis; FA: fatty acid; TG: triglycerides; LPL: lipoprotein lipase; HP: hepatic lipase; CHOL: cholesterol.
smiles,measurement,value
O=C1[C@H](CC[C@H](O)c2ccc(F)cc2)[C@@H](c2ccc(O)cc2)N1c1ccc(F)cc1 [Ezetimibe],Effect on ACACA (ACC1),minor up
same,Effect on ACACB (ACC2),up
same,Effect on APOC3,down
same,Effect on CD36,minor down
same,Effect on ChREBP (MLX1PL),up
same,Effect on DGAT2,minor down
same,Effect on FAS,down
same,Effect on LDLR,minor down
same,Effect on MTP (MTTP1),up
same,Effect on PPARα,up
same,Effect on PPARγ,up
same,Effect on PPARγ-CoA 1α,up
same,Effect on PPARγ-CoA 1β (PERC),up
same,Effect on SREBP-1c,up
same,Effect on mTOR,no change
